Data reported in PubChem BioAssay (NCI).
Values joined by “and” are separate entries in the source; they are usually repeats but may differ in a detail not shown here. Identical values can stand only once.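 Results reflect a 48-hour exposure of cells in 96-well plates to compound at five concentrations. GI50: concentration for 50% inhibition of growth. TGI denotes the concentration required for complete inhibition of growth.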

What was measured:
Assay in all cases: growth of human tumour cells (NCI), 48 h
DLD-1 colon = tested on: DLD-1 colon
DMS 114 small cell lung = tested on: DMS 114 small cell lung
KM20L2 colon = tested on: KM20L2 colon
RXF-631 renal = tested on: RXF-631 renal
SNB-78 CNS = tested on: SNB-78 CNS
XF 498 CNS = tested on: XF 498 CNS
BT-549 breast = tested on: BT-549 breast
HS 578T breast = tested on: HS 578T breast
MDA-N = tested on: MDA-N

Row | SMILES | TGI (DLD-1 colon) | TGI (DMS 114 small cell lung) | TGI (KM20L2 colon) | TGI (RXF-631 renal) | TGI (SNB-78 CNS) | TGI (XF 498 CNS) | TGI (BT-549 breast) | GI50 (DLD-1 colon) | GI50 (DMS 114 small cell lung) | TGI (HS 578T breast) | GI50 (KM20L2 colon) | TGI (MDA-N) | GI50 (RXF-631 renal) | GI50 (SNB-78 CNS)
1 | O=C(CCCCCCCCCCc1ccccc1)c1c(O)cccc1O | 39.7 µM | 45.3 µM | > 100 µM | 85.4 µM | > 100 µM | 40.1 µM | – | – | – | – | – | – | – | –
2 | Oc1cc2cc(-c3ccccc3)[nH]c2c2ccccc12 | > 100 µM | 27.7 µM | > 100 µM | > 89.8 µM | > 100 µM | 25.9 µM | – | – | – | – | – | – | – | –
3 | Brc1ccc2c(c1)C1(c3cc(Br)ccc3-2)c2cc(Br)ccc2-c2ccc(Br)cc21 | > 100 µM | > 100 µM | > 100 µM | > 100 µM | > 100 µM | > 100 µM | – | – | – | – | – | – | – | –
4 | O=C(O)c1cc(Cl)cc(NC(=O)C(Cl)Cl)c1Cl | > 100 µM | > 100 µM | > 100 µM | > 100 µM | > 100 µM | > 100 µM | – | – | – | – | – | – | – | –
5 | COC(=O)C(CC=O)C(=O)C(=O)Nc1cccc(C(F)(F)F)c1 (stereo not drawn) | > 100 µM | > 100 µM | > 100 µM | > 100 µM | > 100 µM | > 100 µM | – | – | – | – | – | – | – | –
6 | CC1CCC(O)C(C(O)CC2CC(=O)N(C)C(=O)C2)C1 (stereo not drawn) | > 100 µM | > 100 µM | > 100 µM | > 100 µM | > 100 µM | > 100 µM | – | – | – | – | – | – | – | –
7 | CC(=O)NC1C(OCc2ccccc2)OC(COC(=O)CCCCCCCCCCNC(=O)c2cccc3c(=O)c4ccccc4[nH]c23)C(O)C1OC(C)C(=O)NC(C)C(=O)NC(CCC(N)=O)C(N)=O (stereo not drawn) | > 100 µM | > 100 µM | > 100 µM | 43.8 µM | > 100 µM | > 100 µM | – | – | – | – | – | – | – | –
8 | CC(C)c1ccc(/C=C(\NC(=O)c2ccccc2)c2nc3ccccc3[nH]2)cc1 | > 100 µM | 92.8 µM | > 100 µM | > 100 µM | > 100 µM | > 100 µM | – | – | – | – | – | – | – | –
9 | COc1ccc([Se]c2ccc(OC)cc2OC)c(OC)c1 | > 100 µM | 13 µM | 31.6 µM | > 100 µM | 96.6 µM | > 100 µM | – | – | – | – | – | – | – | –
10 | O=C1c2c(O)cccc2C(C(=O)CCCCC(=O)C2c3cccc(O)c3C(=O)c3c(O)cccc32)c2cccc(O)c21 | 4.52 µM and 9.27 µM | 1.48 µM and 1.83 µM | 4.39 µM and 5.46 µM | 3.61 µM and 2.81 µM | 1.23 µM and 5.93 µM | 1.18 µM | 1.96 µM | 1.68 µM | 1.01 µM | 0.951 µM | 1.58 µM | 3.77 µM | 1.36 µM | 1.97 µM
